For one assay, the system named is E. coli. Nature of the assay: Molecular phenotypic antimicrobial susceptibility test with direct PCR (no extraction DNA purification step). The assay is classed as cell-based, Escherichia coli.
Another assay relates to pathogen of the specimen. The experiment in a line: Molecular phenotypic antimicrobial susceptibility test with direct PCR at various incubation timepoints (Table 7). The assay is classed as cell-based. An outline of the steps: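 Specimens with known microbial load are cultured, diluted to 0.5 McFarland using optical density, then exposed to antimicrobials prepared in liquid culture media (e.g., Muller Hinton Broth) at their established sensitivity breakpoint concentrations. After incubation, samples are lysed with buffer in a thermal cycler and analyzed by direct semi-quantitative PCR, with antimicrobial-free control wells serving as the susceptibility threshold.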

[1] abbreviates: E. coli #1 - WDCM 00090 - 6.2×E3, specimen with <10,000 cells/mL, direct PCR after 16 hours of incubation.
Setting [2] is: E. coli #1 - WDCM 00090 - 6.2×E3, specimen with <10,000 cells/mL, direct PCR after 16 hours of incubation, Ct at control 13.787.
Setting [3] is: E. coli #2 - WDCM 00090 - 6.2×E3, specimen with <10,000 cells/mL, direct PCR after 16 hours of incubation.
Setting [4] is: E. coli #2 - WDCM 00090 - 6.2×E3, specimen with <10,000 cells/mL, direct PCR after 16 hours of incubation, Ct at control 13.46.
Where [5] appears, read: E. coli isolate JJ1887, direct PCR, Ct at control (average) 12.832.
Where [6] appears, read: E. coli isolate JJ1887, direct PCR, at sensitive breakpoint.
The mark [7] stands for this setting: E. coli isolate 1189, antibiotic incubation time 4 hours.
[8] abbreviates: E. coli isolate 1189, antibiotic incubation time 4 hours, control average Ct […].
[9] abbreviates: E. coli isolate 1189, antibiotic incubation time 6 hours.
Setting [10] is: E. coli isolate 1189, antibiotic incubation time 6 hours, control average Ct 16.992.
Setting [11] is: E. coli isolate 1189, antibiotic incubation time 8 hours.
Setting [12] is: E. coli isolate 1189, antibiotic incubation time 8 hours, control average Ct […].
Where [13] appears, read: E. coli isolate 1189, antibiotic incubation time 10 hours.
Where [14] appears, read: E. coli isolate 1189, antibiotic incubation time 10 hours, control average Ct 15.995.
Setting [15] is: E. coli isolate 1189, antibiotic incubation time 12 hours.
The mark [16] stands for this setting: E. coli isolate 1189, antibiotic incubation time 12 hours, control average Ct 15.495.
Setting [17] is: E. coli isolate 1189, antibiotic incubation time 14 hours.
The mark [18] stands for this setting: E. coli isolate 1189, antibiotic incubation time 14 hours, control average Ct 15.826.
The mark [19] stands for this setting: E. coli isolate 1189, antibiotic incubation time 16 hours.
Setting [20] is: E. coli isolate 1189, antibiotic incubation time 16 hours, control average Ct 14.880.

Consider Piperacillin/Tazobactam, for which the “Molecular Antimicrobial Susceptibility Result” value in the assay on E. coli (setting [1]), with E. coli (setting [3]), with E. coli (setting [6]), in the assay on pathogen of the specimen (setting [7]), in the assay on pathogen of the specimen (setting [9]) and with pathogen of the specimen (setting [11]) was “Sensitive (Antimicrobial wells with pathogen load detected below the control wells (typically >2 cycle thresholds later) may be reported as Sensitive)” in each case. Also, the “Molecular Antimicrobial Susceptibility Result” value with pathogen of the specimen (setting [13]), in the assay with pathogen of the specimen (setting [15]), in the assay on pathogen of the specimen (setting [17]) and in the assay on pathogen of the specimen (setting [19]) was “Sensitive (Antimicrobial wells with pathogen load detected below the control wells (typically >2 cycle thresholds later) may be reported as Sensitive)” in each case. For the same compound, the “Ct at Sensitive Breakpoint” value was 26.78 in the assay with E. coli (setting [2]); 27.46 in the assay with E. coli (setting [4]); 23.923 with E. coli (setting [5]); 20.904 in the assay on pathogen of the specimen (setting [8]); 21.624 in the assay with pathogen of the specimen (setting [10]); 21.570 in the assay with pathogen of the specimen (setting [12]). Besides, the “Ct at Sensitive Breakpoint” value worked out at 22.310 in the assay with pathogen of the specimen (setting [14]), 22.359 in the assay with pathogen of the specimen (setting [16]), 24.257 in the assay on pathogen of the specimen (setting [18]) and 24.143 with pathogen of the specimen (setting [20]).
With `O=C(O)c1cn(C2CC2)c2cc(N3CCNCC3)c(F)cc2c1=O` [Ciprofloxacin], the “Ct at Sensitive Breakpoint” value with E. coli (setting [5]) was 12.215; in the assay on pathogen of the specimen (setting [8]), 27.666; in the assay with pathogen of the specimen (setting [10]), 27.144; in the assay with pathogen of the specimen (setting [12]) it was 28.104; in the assay on pathogen of the specimen (setting [14]) it was 27.715; with pathogen of the specimen (setting [16]) it was 27.182. For the same compound, the “Ct at Sensitive Breakpoint” value in the assay on pathogen of the specimen (setting [18]) is given as 27.128; in the assay with pathogen of the specimen (setting [20]), 28.446. For the same compound, the “Molecular Antimicrobial Susceptibility Result” value is given as “Resistant” in the assay on E. coli (setting [6]); “Sensitive (Antimicrobial wells with pathogen load detected below the control wells (typically >2 cycle thresholds later) may be reported as Sensitive)” with pathogen of the specimen (setting [7]); “Sensitive (Antimicrobial wells with pathogen load detected below the control wells (typically >2 cycle thresholds later) may be reported as Sensitive)” with pathogen of the specimen (setting [9]); “Sensitive (Antimicrobial wells with pathogen load detected below the control wells (typically >2 cycle thresholds later) may be reported as Sensitive)” in the assay on pathogen of the specimen (setting [11]); “Sensitive (Antimicrobial wells with pathogen load detected below the control wells (typically >2 cycle thresholds later) may be reported as Sensitive)” in the assay on pathogen of the specimen (setting [13]); “Sensitive (Antimicrobial wells with pathogen load detected below the control wells (typically >2 cycle thresholds later) may be reported as Sensitive)” in the assay with pathogen of the specimen (setting [15]). Also, the “Molecular Antimicrobial Susceptibility Result” value in the assay with pathogen of the specimen (setting [17]) and in the assay with pathogen of the specimen (setting [19]) was “Sensitive (Antimicrobial wells with pathogen load detected below the control wells (typically >2 cycle thresholds later) may be reported as Sensitive)” throughout.
Consider `O=C1CN(/N=C/c2ccc([N+](=O)[O-])o2)C(=O)N1` [Nitrofurantoin], for which the “Molecular Antimicrobial Susceptibility Result” value in the assay with E. coli (setting [1]), in the assay with E. coli (setting [3]), with E. coli (setting [6]), with pathogen of the specimen (setting [7]), with pathogen of the specimen (setting [9]) and in the assay on pathogen of the specimen (setting [11]) was “Sensitive (Antimicrobial wells with pathogen load detected below the control wells (typically >2 cycle thresholds later) may be reported as Sensitive)” each time. The “Molecular Antimicrobial Susceptibility Result” value in the assay on pathogen of the specimen (setting [13]), with pathogen of the specimen (setting [15]), in the assay on pathogen of the specimen (setting [17]) and in the assay with pathogen of the specimen (setting [19]) was “Sensitive (Antimicrobial wells with pathogen load detected below the control wells (typically >2 cycle thresholds later) may be reported as Sensitive)” in each case. The “Ct at Sensitive Breakpoint” value was 27.90 in the assay with E. coli (setting [2]); 28.97 with E. coli (setting [4]); 26.305 with E. coli (setting [5]); 27.265 in the assay on pathogen of the specimen (setting [8]); 27.430 in the assay on pathogen of the specimen (setting [10]); 28.823 in the assay on pathogen of the specimen (setting [12]). For the same compound, the “Ct at Sensitive Breakpoint” value was determined as 27.170 with pathogen of the specimen (setting [14]), 26.777 in the assay with pathogen of the specimen (setting [16]), 26.788 in the assay on pathogen of the specimen (setting [18]) and 24.548 in the assay on pathogen of the specimen (setting [20]).

These data come from patent US20250290117A1, “MOLECULAR PHENOTYPIC ANTIMICROBIAL SUSCEPTIBILITY TESTING” (priority 2024, published 2025).
